Earlier results as cited in patent US20160017431A1, “Methods for Predicting EGFR Tyrosine Kinase Inhibitor Efficacy” (Driver Group, priority 2014, published 2016).

System: EGFR mutants carrying the T790M mutation
Settings: statement 'has been shown', no data given

Row | SMILES | inhibition of the tyrosine kinase activity of EGFR mutants carrying the T790M mutation
1 | COc1cc2ncnc(Nc3ccc(F)c(Cl)c3)c2cc1NC(=O)/C=C/CN1CCCCC1 [Dacomitinib] | able to inhibit the tyrosine kinase activity
2 | COc1cc(N2CCC(N(C)C)CC2)ccc1Nc1ncc(Cl)c(Nc2ccccc2P(C)(C)=O)n1 [AP26113] | able to inhibit the tyrosine kinase activity
